Measurements reported in patent publication US20140371262A1, “PREVENTIVE AND/OR THERAPEUTIC AGENT FOR THROMBOEMBOLISM IN THROMBOEMBOLISM PATIENT WITH SEVERE RENAL IMPAIRMENT” (Daiichi Sankyo Company, Limited, priority 2011, published 2014).

How the values were obtained:
NVAF patients = experiment: Late phase-II trial targeting NVAF patient in Japan (thromboembolic and bleeding events, 12 weeks); format: in vivo, human; conditions: warfarin group (PT-INR adjusted to 2.0 to 3.0; 1.6 to 2.6 for 70 years or older), 12 weeks
[1] = system: patients with moderate to-high-risk atrial fibrillation; experiment: ENGAGE-AF TIMI-48 phase 3 study of edoxaban versus warfarin in atrial fibrillation
[2] = subgroup whose CLCR had become <30 mL/min during the trial, edoxaban 15 mg (N = 349), warfarin dose adjusted (N = 367)
[3] = warfarin, dose-adjusted to INR 2.0 to 3.0

CC(=O)CC(c1ccccc1)c1c(O)c2ccccc2oc1=O (stereo not shown) [warfarin, reference compound]
Incidence of bleeding events (major, clinically relevant non-major and minor bleeding in total) (NVAF patients): 20.0%
ACM (all cause mortality): # of events [1, 2]: 13
Disabling Stroke: # of events [1, 2]: 3
Disabling Stroke: Event Rate [1, 2]: 0.48 %/yr
Fatal Bleed: # of events [1, 2]: 2
Fatal Bleed: Event Rate [1, 2]: 0.32 %/yr
Fatal SEE: # of events [1, 2]: 0
Fatal SEE: Event Rate [1, 2]: 0.00 %/yr
Fatal Stroke: # of events [1, 2]: 3
Fatal Stroke: Event Rate [1, 2]: 0.48 %/yr
First Disabling or Fatal Stroke, Fatal SEE, LT or Fatal Bleed, or ACM: # of events [1, 2]: 21
First Disabling or Fatal Stroke, Fatal SEE, LT or Fatal Bleed, or ACM: Event Rate [1, 2]: 3.36 %/yr
First Stroke, SEE or TIA: # of events [1, 2]: 14
First Stroke, SEE or TIA: Event Rate [1, 2]: 2.26 %/yr
First Stroke, SEE, Major Bleed, or ACM: # of events [1, 2]: 49
First Stroke, SEE, Major Bleed, or ACM: Event Rate [1, 2]: 8.04 %/yr
LT Bleed (life threatening): # of events [1, 2]: 5
LT Bleed (life threatening): Event Rate [1, 2]: 0.80 %/yr
Annualized rate of death from cardiovascular causes [1, 3]: 3.17%
Annualized rate of major bleeding [1, 3]: 3.43%
Annualized rate of the primary end point (stroke or systemic embolism) during treatment [1, 3]: 1.50%
Rate of the key secondary end point (composite of stroke, systemic embolism, or death from cardiovascular causes) [1, 3]: 4.43%
